# Data reported in patent US9255100B2 (BAYER INTELLECTUAL PROPERTY GMBH, priority 2010, dated 2016).
# Biological target: T1, N-terminally GST-tagged human full length recombinant Mps-1 kinase (Homo sapiens, UniProt P33981)
# T1 construct: N-terminally GST-tagged human full length recombinant Mps-1 kinase; purchased Invitrogen, Karslruhe, Germany PV4071
# T1 sequence (P33981 1-857): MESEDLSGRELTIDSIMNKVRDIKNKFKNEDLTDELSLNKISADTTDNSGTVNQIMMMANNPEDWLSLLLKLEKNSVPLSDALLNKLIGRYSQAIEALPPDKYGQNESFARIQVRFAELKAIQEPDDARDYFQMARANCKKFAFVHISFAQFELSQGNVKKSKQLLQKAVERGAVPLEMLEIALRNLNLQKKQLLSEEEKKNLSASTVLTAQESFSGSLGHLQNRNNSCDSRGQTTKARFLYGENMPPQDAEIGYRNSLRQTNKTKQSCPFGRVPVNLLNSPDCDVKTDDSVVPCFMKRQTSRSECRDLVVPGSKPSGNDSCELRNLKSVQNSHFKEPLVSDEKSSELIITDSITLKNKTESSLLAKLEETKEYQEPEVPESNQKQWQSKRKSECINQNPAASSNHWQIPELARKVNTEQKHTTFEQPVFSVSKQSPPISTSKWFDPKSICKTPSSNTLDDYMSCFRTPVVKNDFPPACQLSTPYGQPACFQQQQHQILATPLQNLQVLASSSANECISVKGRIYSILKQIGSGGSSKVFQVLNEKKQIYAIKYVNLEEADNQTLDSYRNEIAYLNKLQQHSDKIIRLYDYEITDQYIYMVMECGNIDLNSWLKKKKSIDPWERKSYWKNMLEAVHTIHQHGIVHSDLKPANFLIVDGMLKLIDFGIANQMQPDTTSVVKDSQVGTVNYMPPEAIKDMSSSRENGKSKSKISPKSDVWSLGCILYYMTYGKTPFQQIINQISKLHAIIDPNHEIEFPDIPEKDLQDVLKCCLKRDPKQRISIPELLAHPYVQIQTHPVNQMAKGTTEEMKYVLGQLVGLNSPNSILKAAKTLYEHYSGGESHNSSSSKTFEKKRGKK
# Experiment: Mps-1 kinase assay (TR-FRET)
# Type: biochemical
# Conditions: Mps1 IC50 [nM], 10 μM ATP, 1 μM peptide substrate, 60 min at 22° C.
# Summary of the method: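 Kinase activity of N-terminally GST-tagged full-length recombinant Mps-1, used at about 1 nM final and set within the linear range, was measured on a biotinylated peptide substrate. Phosphopeptide was detected by TR-FRET from Eu-anti-phospho(Ser/Thr) antibody to streptavidin-XLent after 1 h at 22° C.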
row,Structure (SMILES),IC50 [nM]
1,"CCNC(=O)c1ccc(-c2cnc3c(NCCOC)cc(Oc4ccc(OC)c(F)c4)nn23)cc1C [Example 610, N-ethyl-4-{6-(3-fluoro-4-methoxyphenoxy)-8-[(2-methoxyethyl)a-mino]imidazo[1,2-b]pyridazin-3-yl}-2-methylbenzamide]",< 1
2,"Cc1cc(Nc2cc(NCC(C)(C)O)c3ncc(-c4ccc(C(=O)NC5CC5)c(C)c4)n3n2)ccc1F [Example 382, N-cyclopropyl-4-{6-[(4-fluoro-3-methylphenyl)amino]-8-[(2-hydroxy-2-methylpropyl)amino]imidazo[1,2-b]pyridazin-3-yl}-2-methylbenzamide]",1.2
3,"Cc1cc(-c2cnc3c(NCC(C)C)cc(Sc4ccccc4)nn23)ccc1C(=O)NC1CC1 [Example 197, N-cyclopropyl-2-methyl-4-{8-[(2-methylpropyl)amino]-6-(phenylsulfanyl)imidazo[1,2-b]pyridazin-3-yl}benzamide]",< 1
4,"Cc1cc(-c2cnc3c(NCC(C)(C)O)cc(Sc4nnc[nH]4)nn23)ccc1C(=O)NC1CC1 [Example 316, N-cyclopropyl-4-{8-[(2-hydroxy-2-methylpropyl)amino]-6-(4H-1,2,4-tri-azol-3-ylsulfanyl)imidazo [1,2-b]pyridazin-3-yl}-2-methylbenzamide]",118
5,"Cc1ccc(Cl)cc1Nc1cc(NCCCC(F)(F)F)c2ncc(-c3ccc(C(=O)NC4CC4)c(C)c3)n2n1 [Example 451, 4-{6-[(5-chloro-2-methylphenyl)amino]-8-[(4,4,4-trifluorobutyl)amino]imidazo[1,2-b]pyridazin-3-yl}-N-cyclopropyl-2-methylbenzamide]",1.3
6,"C/C=C(\C)c1cc(NCC(C)(C)O)c2ncc(-c3ccc(C(=O)NC4CC4)c(C)c3)n2n1 [Example 25, 4-{6-[(2E)-But-2-en-2-yl]-8-[(2-hydroxy-2-methylpropyl)amino]imidazo[1,2-b]pyridazin-3-yl}-N-cyclopropyl-2-methylbenzamide]",13.1
7,"Cc1cc(-c2cnc3c(NCC(C)(C)O)cc(NC4CCNC4)nn23)ccc1C(=O)NC1CC1 (racemic) [Example 272, (RS)—N-cyclopropyl-4-{8-[(2-hydroxy-2-methylpropyl)amino]-6-(pyrrolidin-3-ylamino)imidazo[1,2-b]pyridazin-3-yl}-2-methylbenzamide]",21.1
8,"CSc1cc(NCCC(F)(F)F)c2ncc(-c3ccc(C(=O)NC4CC4)c(C)c3)n2n1 [Example 203, N-cyclopropyl-2-methyl-4-{6-(methylsulfanyl)-8-[(3,3,3-trifluoropropyl)amino]imidazo[1,2-b]pyridazin-3-yl}benzamide]",1.4
9,"CC(C)(O)CNc1cc(-c2ccncc2)nn2c(-c3ccc(C(=S)NC4CC4)cc3)cnc12 [Example 47, N-cyclopropyl-4-{8-[(2-hydroxy-2-methylpropyl)amino]-6-(pyridin-4-yl)imidazo[1,2-b]pyridazin-3-yl}benzenecarbothioamide]",2
10,"Cc1cc(-c2cnc3c(NCC(C)(C)O)cc(Oc4cncnc4)nn23)ccc1C(=O)NC1CC1 [Example 265, N-cyclopropyl-4-{8-[(2-hydroxy-2-methylpropyl)amino]-6-(pyrimidin-5-yloxy)imidazo[1,2-b]pyridazin-3-yl}-2-methylbenzamide]",0.9
11,"CNC(=O)c1ccc(-c2cnc3c(NCC4CCOCC4)cc(Oc4ccc(OC)cc4F)nn23)cc1C [Example 571, 4-{6-(2-fluoro-4-methoxyphenoxy)-8-[(tetrahydro-2H-pyran-4-ylmethyl)amino]imidazo[1,2-b]pyridazin-3-yl}-N,2-dimethylbenzamide]",< 1
12,"CC(C)CNc1cc(Cl)nn2c(-c3ccc(C(N)=O)cc3)cnc12 [Example 176, 4-{6-Chloro-8-[(2-methylpropyl)amino]imidazo[1,2-b]pyridazin-3-yl}benzamide]",465
13,"Cc1cc(F)ccc1Sc1cc(NCC(C)(C)O)c2ncc(-c3ccc(C(=O)NC4CC4)c(C)c3)n2n1 [Example 69, N-cyclopropyl-4-{6-[(4-fluoro-2-methylphenyl)sulfanyl]-8-[(2-hydroxy-2-methylpropyl)amino]imidazo[1,2-b]pyridazin-3-yl}-2-methylbenzamide]",1
14,"CSc1cc(NCC(C)C)c2ncc(-c3ccc(C(=O)NC4CC4)c(C)c3)n2n1 [Example 196, N-cyclopropyl-2-methyl-4-{8-[(2-methylpropyl)amino]-6-(methylsulfanyl)imidazo[1,2-b]pyridazin-3-yl}benzamide]",2.7
15,"COC(C)(C)CNc1cc(-c2ccnn2C)nn2c(-c3ccc(C(=O)NC4CC4)c(C)c3)cnc12 [Example 39, N-cyclopropyl-4-{8-[(2-methoxy-2-methylpropyl)amino]-6-(1-methyl-1H-pyrazol-5-yl)imidazo[1,2-b]pyridazin-3-yl}-2-methylbenzamide]",3.7
16,"Cc1cc(-c2cnc3c(NCC(C)(C)O)cc(Oc4ccccn4)nn23)ccc1C(=O)NC1CC1 [Example 274, N-cyclopropyl-4-{8-[(2-hydroxy-2-methylpropyl)amino]-6-(pyridin-2-yloxy)imidazo[1,2-b]pyridazin-3-yl}-2-methylbenzamide]",73.8

# More lines, in order of falling IC50, values ahead:
row,IC50 [nM],Structure (SMILES)
1,0.7,"Cc1cc(-c2cnc3c(NCCN(C)C)cc(Oc4ccc(F)c(F)c4)nn23)ccc1C(=O)NC1CC1 [Example 525, N-cyclopropyl-4-[6-(3,4-difluorophenoxy)-8-{[2-(dimethylamino)ethyl]amino}imidazo[1,2-b]pyridazin-3-yl]-2-methylbenzamide]"
2,0.4,"Cc1cc(-c2cnc3c(NCC4CCSCC4)cc(Sc4ccccc4)nn23)ccc1C(=O)NC1CC1 [Example 284, N-cyclopropyl-2-methyl-4-{6-(phenylsulfanyl)-8-[(tetrahydro-2H-thiopyran-4-ylmethyl)amino]imidazo[1,2-b]pyridazin-3-yl}benzamide]"
3,0.3,"CC(C)(O)CNc1cc(Oc2cccc(F)c2)nn2c(-c3ccc(C(=S)NC4CC4)cc3)cnc12 [Example 244, N-cyclopropyl-4-{6-(3-fluorophenoxy)-8-[(2-hydroxy-2-methylpropyl)amino]imidazo[1,2-b]pyridazin-3-yl}benzenecarbothioamide]"
4,0.3,"Cc1cc(-c2cnc3c(NCC4CCSCC4)cc(Oc4ccccc4F)nn23)ccc1C(=O)NC1CC1 [Example 283, N-cyclopropyl-4-{6-(2-fluorophenoxy)-8-[(tetrahydro-2H-thiopyran-4-ylmethyl)amino]imidazo[1,2-b]pyridazin-3-yl}-2-methylbenzamide]"
5,0.2,"Cc1cc(-c2cnc3c(NCCC(F)(F)F)cc(Sc4cc(F)ccc4F)nn23)ccc1C(=O)NC1CC1 [Example 255, N-cyclopropyl-4-{6-[(2,5-difluorophenyl)sulfanyl]-8-[(3,3,3-trifluoropropyl)amino]imidazo[1,2-b]pyridazin-3-yl}-2-methylbenzamide]"
6,0.2,"Cc1cc(-c2cnc3c(NCC(C)(C)O)cc(Sc4cccc(O)c4)nn23)ccc1C(=O)NC1CC1 [Example 61A, N-cyclopropyl-4-{8-[(2-hydroxy-2-methylpropyl)amino]-6-[(3-hydroxyphenyl)sulfanyl]imidazo[1,2-b]pyridazin-3-yl}-2-methylbenzamide]"
7,0.1,"COc1ccc(Oc2cc(NCCS(C)(=O)=O)c3ncc(-c4ccc(C(=O)NC5CC5)c(C)c4)n3n2)cc1F [Example 518, N-cyclopropyl-4-[6-(3-fluoro-4-methoxyphenoxy)-8-{[2-(methylsulfonyl)ethyl]amino}imidazo [1,2-b]pyridazin-3-yl]-2-methylbenzamide]"
8,0.1,"Cc1cc(-c2cnc3c(NCCC(F)(F)F)cc(Nc4ccccc4)nn23)ccc1C(=O)NC1CC1 [Example 368, 4-{6-anilino-8-[(3,3,3-trifluoropropyl)amino]imidazo[1,2-b]pyridazin-3-yl}-N-cyclopropyl-2-methylbenzamide]"
9,0.1,"Cc1cc(-c2cnc3c(NCCC(F)(F)F)cc(Nc4ccccc4O)nn23)ccc1C(=O)NC1CC1 [Example 399, N-cyclopropyl-4-{6-[(2-hydroxyphenyl)amino]-8-[(3,3,3-trifluoropropyl)amino]imidazo[1,2-b]pyridazin-3-yl}-2-methylbenzamide]"
10,0.1,"Cc1cc(-c2cnc3c(NCC(O)C(F)(F)F)cc(Oc4cccc(F)c4)nn23)ccc1C(=O)NC1CC1 (centres unmarked) [Example 486, N-cyclopropyl-4-{6-(3-fluorophenoxy)-8-[(3,3,3-trifluoro-2-hydroxypropyl)amino]imidazo[1,2-b]pyridazin-3-yl}-2-methylbenzamide]"
